Test results published in PubChem BioAssay AID1918941 (Molecular Pharmacology Branch, DTP, NCI, 2023).

Test system: SW 1271 complex spheroids, viability
Assay: Anticancer human tumor SW 1271 cell line growth inhibition [LSD1];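 further: spheroids exposed to agents for 7 days before luminescence read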;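 on viability, T/C: 100% = DMSO vehicle control viability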
Conditions: for IC50: curve of first compound; for viability, T/C: stronger effect = lower value
In short: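 Drug combinations with the LSD1 inhibitor iadademstat tested on tumor cells co-cultured as spheroids with endothelial cells and mesenchymal stem cells. Concentrations descended in half-log increments from clinical Cmax or 10 microM.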

[1] = second compound 0.1 µM, first compound 0.000316 µM
[2] = second compound 0.1 µM, first compound 0.001 µM
[3] = second compound 0.1 µM, first compound 0.00316 µM
[4] = second compound 0.1 µM, first compound 0.01 µM
[5] = second compound 0.1 µM, first compound 0.0316 µM
[6] = second compound 0.1 µM, first compound 0.1 µM
[7] = second compound 0.316 µM, first compound 0.000316 µM
[8] = second compound 0.316 µM, first compound 0.001 µM
[9] = second compound 0.316 µM, first compound 0.00316 µM
[10] = second compound 0.316 µM, first compound 0.01 µM
[11] = second compound 0.316 µM, first compound 0.0316 µM
[12] = second compound 0.316 µM, first compound 0.1 µM
[13] = second compound 1 µM, first compound 0.000316 µM
[14] = second compound 1 µM, first compound 0.001 µM
[15] = second compound 1 µM, first compound 0.00316 µM
[16] = second compound 1 µM, first compound 0.01 µM
[17] = second compound 1 µM, first compound 0.0316 µM
[18] = second compound 1 µM, first compound 0.1 µM
[19] = second compound 3.16 µM, first compound 0.000316 µM
[20] = second compound 3.16 µM, first compound 0.001 µM
[21] = second compound 3.16 µM, first compound 0.00316 µM
[22] = second compound 3.16 µM, first compound 0.01 µM
[23] = second compound 3.16 µM, first compound 0.0316 µM
[24] = second compound 3.16 µM, first compound 0.1 µM
[25] = second compound 10 µM, first compound 0.000316 µM
[26] = second compound 10 µM, first compound 0.001 µM
[27] = second compound 10 µM, first compound 0.00316 µM
[28] = second compound 10 µM, first compound 0.01 µM
[29] = second compound 10 µM, first compound 0.0316 µM
[30] = second compound 10 µM, first compound 0.1 µM

Structure (SMILES) | IC50 (second compound 0.1 µM) [nM] | IC50 (second compound 0.316 µM) [nM] | IC50 (second compound 1 µM) [nM] | IC50 (second compound 3.16 µM) [nM] | IC50 (second compound 10 µM) [nM] | viability, T/C [3] [%] | viability, T/C [4] [%] | viability, T/C [5] [%] | viability, T/C [6] [%] | viability, T/C [9] [%] | viability, T/C [10] [%] | viability, T/C [11] [%] | viability, T/C [12] [%] | viability, T/C [15] [%] | viability, T/C [16] [%] | viability, T/C [17] [%] | viability, T/C [18] [%] | viability, T/C [21] [%] | viability, T/C [22] [%] | viability, T/C [23] [%] | other results
CC(C)CC(NC(=O)C(Cc1ccccc1)NC(=O)c1cnccn1)B(O)O (stereo not given) + NC1CC1c1ccc(-c2cccc(O)c2)cc1 | < 0.316 | < 0.316 | < 0.316 | < 0.316 | < 0.316 | 0.1 | 0.28 | 0.2 | 0.25 | 0.09 | 1.18 | 0.59 | 0.2 | 0.37 | 4.1 | 0.05 | 0.13 | 0.12 | 4.7 | 0.14 | viability, T/C [1]: 2.9%; viability, T/C [2]: 0.1%; viability, T/C [7]: 3.44%; viability, T/C [8]: 0.11%; viability, T/C [13]: 2.62%; viability, T/C [14]: 0.2%; viability, T/C [19]: 2.05%; viability, T/C [20]: 0.64%; viability, T/C [24]: 0.19%; viability, T/C [25]: 6.62%; viability, T/C [26]: 0.5%; viability, T/C [27]: 0.15%; viability, T/C [28]: 0.72%; viability, T/C [29]: 0.12%; viability, T/C [30]: 0.19%
CC(C)CC(NC(=O)CNC(=O)c1cc(Cl)ccc1Cl)B1OC(=O)CC(CC(=O)O)(C(=O)O)O1 (stereo not given) + NC1CC1c1ccc(-c2cccc(O)c2)cc1 | 4.86 | 4.67 | 4.38 | 3.94 | 4.36 | 76 | 6.29 | 0.38 | 0.5 | 72.1 | 6.64 | 0.44 | 0.17 | 67.8 | 4.77 | 0.26 | 0.21 | 61 | 3.44 | 3.87 | viability, T/C [1]: 86.8%; viability, T/C [2]: 83.1%; viability, T/C [7]: 83.1%; viability, T/C [8]: 85.3%; viability, T/C [13]: 75.1%; viability, T/C [14]: 76.9%; viability, T/C [19]: 73.1%; viability, T/C [20]: 72.1%; viability, T/C [24]: 0.21%; viability, T/C [25]: 66.1%; viability, T/C [26]: 67.6%; viability, T/C [27]: 70.9%; viability, T/C [28]: 3.06%; viability, T/C [29]: 0.15%; viability, T/C [30]: 0.18%
COc1cc(Nc2ncc3c(n2)-c2ccc(Cl)cc2C(c2c(F)cccc2OC)=NC3)ccc1C(=O)O + NC1CC1c1ccc(-c2cccc(O)c2)cc1 | 79.7 | 69 | 114 | 79 | 64.5 | 75.8 | 69.2 | 67.3 | 43.5 | 62.6 | 69.7 | 58.2 | 43 | 68.4 | 67.3 | 73.6 | 48.1 | 60.1 | 55.7 | 67.7 | viability, T/C (second compound 0.1 µM, first compound 0.316 µM): 29%; viability, T/C (second compound 0.1 µM, first compound 1 µM): 13.3%; viability, T/C (second compound 0.316 µM, first compound 0.316 µM): 31.4%; viability, T/C (second compound 0.316 µM, first compound 1 µM): 13.1%; viability, T/C (second compound 1 µM, first compound 0.316 µM): 31%; viability, T/C (second compound 1 µM, first compound 1 µM): 11.6%; viability, T/C [24]: 43.4%; viability, T/C (second compound 3.16 µM, first compound 0.316 µM): 28.6%; viability, T/C (second compound 3.16 µM, first compound 1 µM): 13.7%; viability, T/C [27]: 65.6%; viability, T/C [28]: 59.1%; viability, T/C [29]: 61.2%; viability, T/C [30]: 43%; viability, T/C (second compound 10 µM, first compound 0.316 µM): 29.6%; viability, T/C (second compound 10 µM, first compound 1 µM): 17.2%
